Laboratory results from patent US9951065B2 (Gilead Sciences, Inc., priority 2015, dated 2018).

What follows are compounds tested against T1, IDO1 (Homo sapiens, UniProt P14902) (assay: Cell-based (HeLa) assay for measurement of IDO1 inhibition (kynurenine levels in supernatant after IFNγ induction)). Settings: HeLa cells, IFNγ-induced IDO1, kynurenine in supernatant after 48 hour incubation; geometric mean of a minimum of four determinations.
T1 construct: HeLa cells were treated with a test compound in the presence of IFNγ, which induces IDO1 expression; host or cells: H1-HeLa cells, IDO1 induced with IFNγ
T1 sequence (P14902 whole entry): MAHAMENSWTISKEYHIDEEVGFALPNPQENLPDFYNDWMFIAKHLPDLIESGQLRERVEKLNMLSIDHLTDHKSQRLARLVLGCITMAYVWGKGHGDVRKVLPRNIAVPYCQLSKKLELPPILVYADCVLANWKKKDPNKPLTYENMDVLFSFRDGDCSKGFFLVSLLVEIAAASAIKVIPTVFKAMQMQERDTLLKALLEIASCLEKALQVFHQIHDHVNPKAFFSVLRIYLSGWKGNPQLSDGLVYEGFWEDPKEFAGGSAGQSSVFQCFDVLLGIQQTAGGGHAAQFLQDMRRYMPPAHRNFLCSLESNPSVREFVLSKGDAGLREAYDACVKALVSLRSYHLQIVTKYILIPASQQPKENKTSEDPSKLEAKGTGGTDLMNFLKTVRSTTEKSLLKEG
Method: Example 509. Cell-Based (HeLa) Assay for Measurement of IDOL Inhibition
To measure IDO1 inhibition in tissue culture, HeLa cells were treated with a test compound in the presence of IFNγ, which induces IDO1 expression. Following incubation, cell supernatants were assayed for kynurenine levels, an indicator of IDO1 activity.
H1-HeLa cells (ATCC #CRL-1958) were seeded in 384-well plates (Greiner #82051-282) at a volume of 50 μL/well in DMEM (Corning #15-018-CM) supplemented with 10% FBS (Corning #35-011-CV) and 1% P/S/G (Corning #30-009-CL) at a density of 1,250 cells/well and incubated overnight at 37° C., 5% CO2/100% humidity. The following day, the test compounds were added in DMSO (0.5% final) at various concentrations, and IDO1 was inducibly expressed by the addition of 50 uL/well of […] of INFγ (Peprotech #300-02) in cell plating media. As a […] control, 50 uL of the cell plating media without IFNγ was added to several wells. Following a 48 hour incubation, the plates were spun down at 1,200 RPM for 5 min at 10° C. 65 μL/well of the supernatant was then transferred to new 384-well plates (Thermo #262160) that contained 10 uL/well of 30% TCA (Sigma #TO699), and the plates were sealed and incubated at 60° C. for 30 min. The plates were then centrifuged for 15 min at 2,000 RPM at 10° C. 40 μL/well of the supernatant was transferred to new 384-well plates (Thermo #262160) and was reacted with 40 μL/well of 2% (w/v) p-dimethlyaminobenzaldehyde (Sigma #156417) in glacial acetic acid (Sigma #A6283). The reaction was incubated at room temperature for 10 min and absorbance at 480 nm was read using a PerkinElmer Envision plate reader.
Data in Table 1 were normalized based on positive (−IFNγ) and negative (+IFNγ) controls and EC50 values were calculated from the fit of the dose response curves to a four-parameter equation. All EC50 values represent geometric mean values of a minimum of four determinations. These assays generally produced results within 2-fold of the reported mean.
Compound `CNc1nc2nccc(/C(=N/O)Nc3ccc(F)c(Cl)c3)c2[nH]1` [Example 158, N-(3-Chloro-4-fluorophenyl)-N′-hydroxy-2-(methylamino)-1H-imidazo[4,5-b]pyridine-7-carboximidamide] has an EC50 of 460 nM.
With `CC(C)(C)CNCc1nc2nccc(/C(=N/O)Nc3ccc(F)c(Cl)c3)c2[nH]1` [Example 141, N-(3-Chloro-4-fluorophenyl)-N′-hydroxy-2-((neopentylamino)methyl)-1H-imidazo[4,5-b]pyridine-7-carboximidamide] the EC50 was 1680 nM.
With `COCCNc1nc2c(F)c(F)cc(/C(=N/O)Nc3ccc(F)c(Cl)c3)c2[nH]1` [Example 40, N-(3-Chloro-4-fluorophenyl)-4,5-difluoro-N′-hydroxy-2-((2-methoxyethyl)amino)-1H-benzo[d]imidazole-7-carboximidamide] the EC50 was 1520 nM.
For `CN(C)CCc1nc2c(/C(=N/O)Nc3ccc(F)c(Br)c3)cc(F)c(F)c2[nH]1` [Example 54, N-(3-Bromo-4-fluorophenyl)-2-(2-(dimethylamino)ethyl)-6,7-difluoro-N′-hydroxy-1H-benzo[d]imidazole-4-carboximidamide], the EC50 was 461 nM.
For `O/N=C(\Nc1ccc(F)c(Cl)c1)c1ccnc2nc(NCCN3CCCCC3)[nH]c12` [Example 222, N-(3-chloro-4-fluorophenyl)-N′-hydroxy-2-((2-(piperidin-1-yl)ethyl)amino)-1H-imidazo[4,5-b]pyridine-7-carboximidamide], the EC50 was 1520 nM.
Work on `Nc1nc2nccc(/C(=N/O)Nc3ccc(F)c(Cl)c3)c2[nH]1` [Example 153, 2-Amino-N-(3-chloro-4-fluorophenyl)-N′-hydroxy-1H-imidazo[4,5-b]pyridine-7-carboximidamide] yielded an EC50 of 897 nM.
`O/N=C(\Nc1ccc(F)c(Cl)c1)c1ccnc2nc(CNC3CC3)[nH]c12` [Example 119, N-(3-Chloro-4-fluorophenyl)-2-((cyclopropylamino)methyl)-N′-hydroxy-1H-imidazo[4,5-b]pyridine-7-carboximidamide] gave an EC50 of 2150 nM.
In the case of `NS(=O)(=O)NCCc1nc2nccc(/C(=N/O)Nc3ccc(F)c(Cl)c3)c2[nH]1` [Example 267, N-(3-chloro-4-fluorophenyl)-N′-hydroxy-2-(2-(sulfamoylamino)ethyl)-1H-imidazo[4,5-b]pyridine-7-carboximidamide], the EC50 is reported as > 10000 nM.
Compound `CCc1nc2nccc(/C(=N/O)Nc3ccc(F)c(Cl)c3)c2[nH]1` [Example 108, N-(3-Chloro-4-fluorophenyl)-2-ethyl-N′-hydroxy-1H-imidazo[4,5-b]pyridine-7-carboximidamide] has an EC50 of 3190 nM.
Work on `NCc1nc2c(/C(=N/O)Nc3ccc(F)c(Cl)c3)cc(F)c(F)c2[nH]1` [Example 47, 2-(Aminomethyl)-N-(3-chloro-4-fluorophenyl)-4,5-difluoro-N′-hydroxy-1H-benzo[d]imidazole-7-carboximidamide] yielded an EC50 of 1080 nM.
Work on `O/N=C(\Nc1ccc(F)c(Cl)c1)c1ccnc2nc(CNCC(F)F)[nH]c12` [Example 142, N-(3-Chloro-4-fluorophenyl)-2-(((2,2-difluoroethyl)amino)methyl)-N′-hydroxy-1H-imidazo[4,5-b]pyridine-7-carboximidamide] yielded an EC50 of 5160 nM.
`O/N=C(\Nc1ccc(F)c(Cl)c1)c1ccc(F)c2nc[nH]c12` [Example 5, N-(3-Chloro-4-fluorophenyl)-4-fluoro-N′-hydroxy-1H-benzo[d]imidazole-7-carboximidamide] showed an EC50 of 542 nM.
Work on `COCCCNc1nc2nccc(/C(=N/O)Nc3ccc(F)c(Cl)c3)c2[nH]1` [Example 234, N-(3-chloro-4-fluorophenyl)-N′-hydroxy-2-((3-methoxypropyl)amino)-1H-imidazo[4,5-b]pyridine-7-carboximidamide] yielded an EC50 of 698 nM.
`O/N=C(\Nc1ccc(F)c(OC(F)(F)F)c1)c1ccnc2nc[nH]c12` [Example 101, N-(4-Fluoro-3-(trifluoromethoxy)phenyl)-N′-hydroxy-1H-imidazo[4,5-b]pyridine-7-carboximidamide] showed an EC50 of 845 nM.
With `O/N=C(\Nc1ccc(F)c(Cl)c1)c1cccc2nc[nH]c12` [Example 8, N-(3-Chloro-4-fluorophenyl)-N′-hydroxy-1H-benzo[d]imidazole-7-carboximidamide] the EC50 was 1790 nM.
`O/N=C(\Nc1ccc(F)c(Cl)c1)c1ccc(F)c2nc(NCCCN3CCOCC3)[nH]c12` [Example 200, N-(3-Chloro-4-fluorophenyl)-7-fluoro-N′-hydroxy-2-(3-morpholin-4-ylpropylamino)-3H-benzimidazole-4-carboximidamide] gave an EC50 of 564 nM.
`O/N=C(\Nc1ccc(F)c(Cl)c1)c1ccnc2nc(NCCCN3CCOCC3)[nH]c12` [Example 221, N-(3-chloro-4-fluorophenyl)-N′-hydroxy-2-((3-morpholinopropyl)amino)-1H-imidazo[4,5-b]pyridine-7-carboximidamide] was tested, and the EC50 was 899 nM.
`CCN(CC)CCNc1nc2nccc(/C(=N/O)Nc3ccc(F)c(Cl)c3)c2[nH]1` [Example 167, N-(3-Chloro-4-fluorophenyl)-2-((2-(diethylamino)ethyl)amino)-N′-hydroxy-1H-imidazo[4,5-b]pyridine-7-carboximidamide] showed an EC50 of 2910 nM.

Same assay, conditions: HeLa cells, IFNγ-induced IDO1, kynurenine in supernatant, 48 hour incubation; geometric mean of a minimum of four determinations
In the case of `CC(C)(O)Cc1nc2c(F)c(F)cc(/C(=N/O)Nc3ccc(F)c(Cl)c3)c2[nH]1` [Example 302, N-(3-chloro-4-fluorophenyl)-4,5-difluoro-N′-hydroxy-2-(2-hydroxy-2-methylpropyl)-1H-benzo[d]imidazole-7-carboximidamide], the EC50 is reported as > 10000 nM.
Work on `CN(CCc1nc2nccc(/C(=N/O)Nc3ccc(F)c(Cl)c3)c2[nH]1)CC(C)(C)C` [Example 392, N-(3-chloro-4-fluorophenyl)-N′-hydroxy-2-(2-(methyl(neopentyl)amino)ethyl)-1H-imidazo[4,5-b]pyridine-7-carboximidamide] yielded an EC50 of 1230 nM.
`CNC(C)Cc1nc2nccc(/C(=N/O)Nc3ccc(F)c(Cl)c3)c2[nH]1` (centres unmarked) [Example 327, N-(3-chloro-4-fluorophenyl)-N′-hydroxy-2-(2-(methylamino)propyl)-1H-imidazo[4,5-b]pyridine-7-carboximidamide] showed an EC50 of 7620 nM.
For `CCN(CC)CCNc1nc2c(F)ccc(/C(=N/O)Nc3ccc(F)c(Cl)c3)c2[nH]1` [Example 375, N-(3-chloro-4-fluorophenyl)-2-((2-(diethylamino)ethyl)amino)-4-fluoro-N′-hydroxy-1H-benzo[d]imidazole-7-carboximidamide], the EC50 was 1190 nM.
`CN1CCOC(CNc2nc3c(F)c(F)cc(/C(=N/O)Nc4ccc(F)c(Cl)c4)c3[nH]2)C1` (centres unmarked) [Example 356, N-(3-chloro-4-fluorophenyl)-4,5-difluoro-N′-hydroxy-2-(((4-methylmorpholin-2-yl)methyl)amino)-1H-benzo[d]imidazole-7-carboximidamide] showed an EC50 of 3260 nM.
`O/N=C(\Nc1ccc(F)c(Cl)c1)c1cc(F)c(F)c2nc(NC3CCNC3)[nH]c12` (centres unmarked) [Example 464, N-(3-chloro-4-fluorophenyl)-4,5-difluoro-N′-hydroxy-2-(pyrrolidin-3-ylamino)-1H-benzo[d]imidazole-7-carboximidamide] gave an EC50 of 2350 nM.
Compound `CN1CCCC1CCNc1nc2c(F)c(F)cc(/C(=N/O)Nc3ccc(F)c(Cl)c3)c2[nH]1` (centres unmarked) [Example 354, N-(3-chloro-4-fluorophenyl)-4,5-difluoro-N′-hydroxy-2-((2-(1-methylpyrrolidin-2-yl)ethyl)amino)-1H-benzo[d]imidazole-7-carboximidamide] has an EC50 of 1210 nM.
In the case of `Nc1nc2cc(F)cc(/C(=N/O)Nc3ccc(F)c(Cl)c3)c2[nH]1` [Example 370, 2-amino-N-(3-chloro-4-fluorophenyl)-5-fluoro-N′-hydroxy-1H-benzo[d]imidazole-7-carboximidamide], the EC50 is reported as 1080 nM.
Work on `O/N=C(\Nc1ccc(F)c(Cl)c1)c1cc(F)c(F)c2nc(NCc3cccnc3)[nH]c12` [Example 343, N-(3-chloro-4-fluorophenyl)-4,5-difluoro-N′-hydroxy-2-((pyridin-3-ylmethyl)amino)-1H-benzo[d]imidazole-7-carboximidamide] yielded an EC50 of 3860 nM.
`Nc1nc2cc(F)cc(/C(=N/O)Nc3cccc(Cl)c3)c2[nH]1` [Example 371, 2-amino-N-(3-chlorophenyl)-5-fluoro-N′-hydroxy-1H-benzo[d]imidazole-7-carboximidamide] was tested, and the EC50 was 644 nM.
In the case of `O/N=C(\Nc1ccc(F)c(Cl)c1)c1ccnc2nc(CC3CCCCN3)[nH]c12` (centres unmarked) [Example 325, N-(3-chloro-4-fluorophenyl)-N′-hydroxy-2-(piperidin-2-ylmethyl)-1H-imidazo[4,5-b]pyridine-7-carboximidamide], the EC50 is reported as > 10000 nM.
